# ChEMBL document CHEMBL3797106, “Potent and Selective Agonists of Sphingosine 1-Phosphate 1 (S1P1): Discovery and SAR of a Novel Isoxazole Based Series” (J Med Chem, 2016)
# Activity calls are given as the source filed them. The calls are words filed in the database; no cut-off is given here.
# Legend:
# [1] = target: T1, Cytochrome P450 1A2 (Homo sapiens, UniProt P05177); experiment: Inhibition of CYP1A2 (unknown origin); format: ADME
# T1 sequence (P05177 whole entry): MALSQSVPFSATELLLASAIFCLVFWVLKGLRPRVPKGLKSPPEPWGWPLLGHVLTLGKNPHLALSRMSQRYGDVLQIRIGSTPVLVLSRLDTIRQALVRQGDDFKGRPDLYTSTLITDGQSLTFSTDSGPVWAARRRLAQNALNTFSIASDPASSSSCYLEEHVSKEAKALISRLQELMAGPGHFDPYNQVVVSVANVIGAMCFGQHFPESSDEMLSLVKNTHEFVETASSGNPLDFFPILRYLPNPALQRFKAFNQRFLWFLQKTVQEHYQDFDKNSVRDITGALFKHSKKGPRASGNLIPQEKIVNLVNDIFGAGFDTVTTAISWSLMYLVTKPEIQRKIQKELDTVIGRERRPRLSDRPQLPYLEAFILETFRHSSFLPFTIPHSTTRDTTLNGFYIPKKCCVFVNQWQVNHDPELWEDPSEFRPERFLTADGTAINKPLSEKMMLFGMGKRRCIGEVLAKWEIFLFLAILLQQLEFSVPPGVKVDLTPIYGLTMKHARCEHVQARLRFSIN
# [2] = Plasma concentration in Lewis rat at 0.3 mg/kg, po measured at 24 hrs; format: ADME, organism-based
# [3] = system: Rattus norvegicus; experiment: Antiarthritic activity in complete Freund's adjuvant-induced Lewis rat arthritis model assessed as suppression of paw swelling at 0.03 mg/kg, po qd for 21 days started from day of immunization measured 3 times per week of compound dosing by water displacement plethysmometry; format: functional, organism-based
smiles,measurement,setting,value
O=C(O)C1CN(Cc2ccc(-c3noc(-c4onc(-c5ccccc5)c4C(F)(F)F)n3)cc2)C1,IC50,[1],> 40 µM
same,concentration at 24 h,[2],0.025 µM
same,Activity,[3],inactive
